Structures can show the parent of a compound that is named as a salt.
Assays:
[1] = tested on: Escherichia coli ATCC 35218; test: MIC, broth microdilution, normal MH medium; format: cell-based; conditions: Escherichia coli, ATCC35218, quality control strain, read-out: Antibacterial activity MIC, Escherichia coli ATCC 35218
Protocol: (§1) Strain for quality control: Escherichia coli ATCC35218, purchased from National Center of Clinical Laboratory.
(§2) Medium: MH liquid medium (OXOID).
(§3) Culture condition: cells were incubated at 35-37° C. for 16-18 h.
(§4) The broth microdilution method recommended by Clinical and Laboratory Standards Institute (CLSI), Performance Standards for Antimicrobial Susceptibility Testing; Twenty-Third Informational Supplement, M02-All, M07-A9 and M11-A8, 2013 was used to determine the MIC value of each test sample against each test strain in the normal MH medium and iron-deficient MH medium.
(§5) After diluting each sample to different concentrations with normal MH medium, 100 μl of each test sample solution at different concentrations was separately aspirated onto a 96-well sterile polystyrene plate. Drug solutions were added to the 1st to 10th well with the final concentrations of 16, 8, 4, 2, 1, 0.5, 0.25, 0.125, 0.06, and 0.03 mg/L in each well, respectively. The 11th well, as a blank control, was not added with drugs and bacteria. The 12th well, as a bacterial growth control, was added with bacteria but no drug.
(§6) The test bacterial liquid was adjusted to a bacterial suspension of 0.5 Mcfarland standard with physiological saline, and diluted with MH broth at 1:100, and then added to the drug solution so that a final concentration of the bacterial liquid was approximately 10^4 CFU/ml; 100 μl of the bacterial liquid was further added to each of the above wells (the total volume in each well is 200 μl), which was sealed and placed in a 35-37° C. incubator for 18-20 h for testing the result. The OD600 value was measured by a microplate reader, Minimal Inhibitory Concentration (MIC) of a drug is the lowest concentration of the drug which prevents growth of bacteria in the wells. 1.2.2 MIC in iron-deficient MH medium

[2] = tested on: Acinetobacter baumannii (4 strains); test: MIC, broth microdilution, normal MH medium; format: cell-based; conditions: Acinetobacter baumannii, read-out: Antibacterial activity MIC, Acinetobacter baumarmii (4 strains)
Protocol: (§7) Supplier of the strains: all of the above strains were provided by Sichuan Primed Shines Bio-tech Co., Ltd. A single colony was isolated by streaking on agar plates for each strain prior to the experiment, and the cells freshly cultured at 37° C. overnight were appropriately diluted for the experiment.
as §2, §3, §4, §5, §6

[3] = tested on: Escherichia coli (4 strains); test: MIC, broth microdilution, normal MH medium; format: cell-based
Protocol: as §7, §2, §3, §4, §5, §6

[4] = tested on: Pseudomonas aeruginosa (4 strains); test: MIC, broth microdilution, normal MH medium; format: cell-based; conditions: Pseudomonas aeruginosa, multidrug-resistant clinical isolates (integrator I, IMP4), read-out: Antibacterial activity MIC, Pseudomonas aeruginosa (4 strains)
Protocol: as §7, §2, §3, §4, §5, §6

[5] = tested on: Escherichia coli ATCC 35218; test: MIC, broth microdilution, iron-deficient MH medium; format: cell-based; conditions: Escherichia coli, ATCC35218; iron-deficient MH medium (16 mg/L 2,2'-bipyridine); quality control strain; read-out: Antibacterial activity MIC, Escherichia coli ATCC 35218
Protocol: as §1, §2, §3, §4
BPL was added to the normal MH medium to obtain a final concentration of 16 mg/L; According to the method in Section 1.2.1, 100 μl of each test sample solution at different concentrations was aspirated to the 1st to 10th well in a 96-well sterile polystyrene plate to obtain the final drug concentrations of 16, 8, 4, 2, 1, 0.5, 0.25, 0.125, 0.06, and 0.03 mg/L, respectively. Then, 100 μl of the test bacterial liquid was added to each well (200 μl per well), and the final concentration of the bacterial liquid was approximately 10^4 CFU/ml. After sealing, it was placed in a 35-37° C. incubator for 18-20 hours for testing the result. The OD600 value was measured by a microplate reader, Minimal Inhibitory Concentration (MIC) of a drug is the lowest concentration of the drug which prevents growth of bacteria in the wells.

[6] = tested on: multidrug-resistant Klebsiella pneumoniae KR15-4 (KPC2); test: In vivo efficacy in mice systemically infected with multidrug-resistant Klebsiella pneumoniae KR15-4 (KPC2); conditions: Klebsiella pneumoniae; Kunming mice, intraperitoneal infection, drug s.c. 0.5 h and 4 h after infection, deaths over 7 days, Bliss method; read-out: ED50 Subcutaneous injection
Protocol: 4.1 Test strains: clinically isolated pathogenic multidrug-resistant Klebsiella pneumoniae KR15-4 (KPC2), provided by Sichuan Primed Shines Bio-tech Co., Ltd.
4.2 Test animals: Kunming mice, age: 4 to 5 weeks, weight: 18 to 22 g, half male, half female, SPF grade.
4.3 Test methods: Mice were randomly divided into several groups, 5 mice for each group, half male and half female, and 4 doses for each test drug: 12.5, 25, 50 and 100 mg/kg. The mice were intraperitoneally injected with 0.5 mL of 3.0×10^6 CFU/mL bacterial suspension for each mouse, and subcutaneously injected with the drug at the designed dose 0.5 h and 4 h after infection. The subcutaneous injection volume was 0.2 ml/20 g mouse weight; the number of deaths in mice was observed and recorded for 7 consecutive days. According to the number of deaths in mice, the half effective dose ED50 was calculated according to the Bliss method using the DAS 1.0 software, edited by Sun Ruiyuan et al.

## CC(C)C(O/N=C(\C(=O)N[C@@H]1C(=O)N(OS(=O)(=O)O)C1(C)C)c1csc(N)n1)c1cc(=O)c(O)cn1O (stereo partly drawn) [Compound 12, (3S)-3-((Z)-2-(2-aminothiazol-4-yl)-2-((1-(1,5-dihydroxy-4-oxo-1,4-dihydropyridin-2-yl)methylisopropyloxy)imine)acetamido)-2,2-dimethyl-4-oxoazetidine-1-hydrogen sulfate]
[1]
  MIC: < 0.03 µg/mL
[2]
  MIC: 2 µg/mL
[3]; Escherichia coli, clinical isolates (ESBLs), read-out: Antibacterial activity MIC, Escherichia coli (4 strains)
  MIC: 0.03 to 0.25 µg/mL
[3]; from MIC of Table 2
  times more effective than BAL30072 in inhibitory activity against Escherichia coli: 4-32 times
[4]
  MIC: 0.25 to 2 µg/mL
[5]
  MIC: < 0.03 µg/mL
[6]
  ED50: 10.2 mg/kg
